The subject of data set [1] is KB, human nasopharyngeal carcinoma cell line. Put plainly: cells. It counts as cell-based. The following applies: growth inhibition after 72 h of drug exposure, SRB staining, A515, means ± standard deviation from three independent experiments, read-out: In vitro inhibitory activity IC50, KB. The method, then: (§1) All of the prepared analogues (S1–S4, C1–C9, N1–N2, M1–M3) were tested for their in vitro anticancer activities against KB and A549 cell lines. Briefly, cells were seeded into 96-well plates and cultured overnight, treated with tested samples for 72 h. Then, the cells were fixed with 10% trichloroacetic acid (100 µL) and stained with sulforhodamine B (Sigma, St. Louis, MO, USA). The sulforhodamine B (100 µL) in the cells was dissolved in 10 mmol/L Tris-HCl (150 µL) and measured at 515 nm using a multiwell spectrophotometer (VERSAmax, Molecular Devices, Sunnyvale, CA, USA). The inhibition rate on cell proliferation was calculated for each well as (A515control cells − A515treated cells)/A515control cells × 100% (A515: optical density value at 515 nm). The average IC50 values were determined by the Logit method from at least three independent tests.
(The SRB assay estimates cell density from bound dye.)

The subject of data set [2] is A549, human non-small cell lung tumor cell line. The experiment in a line: cells. The following applies: growth inhibition after 72 h of drug exposure, SRB staining, A515, means ± standard deviation from three independent experiments, read-out: In vitro inhibitory activity IC50, A549. It is filed as cell-based. How it is done:
as §1

Data set [3] deals with human colon carcinoma (LoVo) cell line. The following applies: natural product isolated from Symploca sp.; cited from earlier work. From the text: (§2) Marine cyanobacteria are a well-known prolific source of novel bioactive compounds [1, 2, 3], most of which are linear or cyclic (depsi)peptides with distinctive structures. […] The first total synthesis of tasiamide was reported by our group in 2008.

Data set [4] deals with human nasopharyngeal carcinoma (KB) cell line. The following applies: natural product isolated from Symploca sp.; cited from earlier work.
Text: as §2

Like-named read-outs stand apart in the source and are kept apart here. Non-standard residues stand in square brackets, D forms with d. Residues, ends and D or L forms follow the SMILES beside them. *: point of attachment. Pentanoyl(2S-OH,3S-Me) = CC[C@H](C)[C@H](O)C(=O)*; Tetrahydroisoquinolin(2-yl) = c1ccc2c(c1)CCN(*)C2; dNMeF = CN[C@H](Cc1ccccc1)C(=O)O; NMeQ = CN[C@@H](CCC(N)=O)C(=O)O; Tic = O=C(O)[C@@H]1Cc2ccccc2CN1; X1 = CN(C)[C@H](CCC(N)=O)C(=O)*; dNMeQ = CN[C@H](CCC(N)=O)C(=O)O; NMeA = CN[C@@H](C)C(=O)O; Pentanoyl = CCCCC(=O)*; NHBn = c1ccc(CN*)cc1; Glycolyl = O=C(CO)*; NHPh = c1ccc(N*)cc1; OBn = c1ccc(CO*)cc1

One may read the IC50 as the midpoint of a concentration-inhibition curve.

Turning to `CC[C@H](C)[C@H](O)C(=O)N[C@@H](CC(C)C)C(=O)N(C)[C@H](CCC(N)=O)C(=O)N[C@H](C(=O)NCC(=O)N(C)[C@H](Cc1ccccc1)C(=O)N1CCc2ccccc2C1)[C@@H](C)CC` [Compound C8, HO-Hmp-Leu-N-Me-D-Gln-Ile-Gly-N-Me-D-Phe-NH-TIQ] ({Pentanoyl(2S-OH,3S-Me)}-L[dNMeQ]IG[dNMeF]-{Tetrahydroisoquinolin(2-yl)}), the IC50 is 3.64 ± 0.55 µM in data set [1] and greater than 50 µM in data set [2].

As to `CC[C@H](C)[C@H](O)C(=O)N[C@@H](CC(C)C)C(=O)N[C@H](CCC(N)=O)C(=O)N[C@H](C(=O)NCC(=O)N(C)[C@H](Cc1ccccc1)C(=O)NCc1ccccc1)[C@@H](C)CC` [Compound M1, HO-Hmp-Leu-D-Gln-Ile-Gly-N-Me-D-Phe-NH-Bn] ({Pentanoyl(2S-OH,3S-Me)}-L[dQ]IG[dNMeF]-NHBn), the IC50 in data set [1] and in data set [2] was greater than 50 µM each time.

For `CC[C@H](C)[C@H](O)C(=O)N[C@@H](CC(C)C)C(=O)N(C)[C@H](CCC(N)=O)C(=O)N[C@H](C(=O)NCC(=O)N(C)[C@H](Cc1ccccc1)C(=O)NCc1ccccc1)[C@@H](C)CC` [Compound C4, HO-Hmp-Leu-N-Me-D-Gln-Ile-Gly-N-Me-D-Phe-NH-Bn] ({Pentanoyl(2S-OH,3S-Me)}-L[dNMeQ]IG[dNMeF]-NHBn), the values for the IC50 in data set [1] and in data set [2] were 1.29 ± 0.31 µM and 8.48 ± 1.39 µM, respectively.

In the case of `CCCCC(=O)N[C@@H](CC(C)C)C(=O)N(C)[C@H](CCC(N)=O)C(=O)N[C@H](C(=O)NCC(=O)N(C)[C@H](Cc1ccccc1)C(=O)NCc1ccccc1)[C@@H](C)CC` [Compound N1, n-Pentanoyl-Leu-N-Me-D-Gln-Ile-Gly-N-Me-D-Phe-NH-Bn] (Pentanoyl-L[dNMeQ]IG[dNMeF]-NHBn), the IC50 in data set [1] and in data set [2] was greater than 50 µM throughout.

Consider `CC[C@H](C)[C@H](O)C(=O)N[C@@H](CC(C)C)C(=O)N(C)[C@@H](CCC(N)=O)C(=O)N[C@H](C(=O)NCC(=O)N(C)[C@H](Cc1ccccc1)C(=O)NCc1ccccc1)[C@@H](C)CC` [Compound C3, HO-Hmp-Leu-N-Me-Gln-Ile-Gly-N-Me-D-Phe-NH-Bn] ({Pentanoyl(2S-OH,3S-Me)}-L[NMeQ]IG[dNMeF]-NHBn), for which the IC50 came to 2.08 ± 0.33 µM in data set [1] and 2.24 ± 0.44 µM in data set [2].

As for `CC[C@H](C)[C@H](O)C(=O)N[C@@H](CC(C)C)C(=O)N(C)[C@H](CCC(N)=O)C(=O)N[C@H](C(=O)OCc1ccccc1)[C@@H](C)CC` [Compound S3, HO-Hmp-Leu-N-Me-D-Gln-Ile-OBn], the IC50 in data set [1] and in data set [2] was greater than 50 µM each time.

On to `CC[C@H](C)[C@H](O)C(=O)N[C@@H](CC(C)C)C(=O)N(C)[C@@H](C)C(=O)N[C@H](C(=O)NCC(=O)N(C)[C@H](Cc1ccccc1)C(=O)NCc1ccccc1)[C@@H](C)CC` [Compound C9, HO-Hmp-Leu-N-Me-Ala-Ile-Gly-N-Me-D-Phe-NH-Bn] ({Pentanoyl(2S-OH,3S-Me)}-L[NMeA]IG[dNMeF]-NHBn), for which the IC50 in data set [1] and in data set [2] was greater than 50 µM throughout.

`CC[C@H](C)[C@H](O)C(=O)N[C@@H](CC(C)C)C(=O)N(C)[C@H](CCC(N)=O)C(=O)N[C@H](C(=O)NCC(=O)N(C)[C@H](Cc1ccccc1)C(=O)Nc1ccccc1)[C@@H](C)CC` [Compound C2, HO-Hmp-Leu-N-Me-D-Gln-Ile-Gly-N-Me-D-Phe-NH-Ph] ({Pentanoyl(2S-OH,3S-Me)}-L[dNMeQ]IG[dNMeF]-NHPh): the IC50 in data set [1] was 8.26 ± 1.22 µM; in data set [2], greater than 50 µM.

Regarding `CC[C@H](C)[C@H](O)C(=O)N[C@@H](CC(C)C)C(=O)N(C)[C@H](CCC(N)=O)C(=O)N[C@H](C(=O)NCC(=O)N(C)[C@H](Cc1ccccc1)C(=O)N1Cc2ccccc2C[C@H]1C(=O)OC)[C@@H](C)CC` [Compound C6, HO-Hmp-Leu-N-Me-D-Gln-Ile-Gly-N-Me-D-Phe-NH-MTC] ({Pentanoyl(2S-OH,3S-Me)}-L[dNMeQ]IG[dNMeF][Tic]-OMe), the IC50 in data set [1] is 8.52 ± 1.41 µM; in data set [2], 12.9 ± 1.32 µM.

Turning to `CC[C@H](C)[C@H](O)C(=O)N[C@@H](CC(C)C)C(=O)N(C)[C@@H](CCC(N)=O)C(=O)N[C@H](C(=O)NCC(=O)N(C)[C@H](Cc1ccccc1)C(=O)Nc1ccccc1)[C@@H](C)CC` [Compound C1, HO-Hmp-Leu-N-Me-Gln-Ile-Gly-N-Me-D-Phe-NH-Ph] ({Pentanoyl(2S-OH,3S-Me)}-L[NMeQ]IG[dNMeF]-NHPh), the IC50 in data set [1] stood at 3.21 ± 0.6 µM; in data set [2] it was 4.17 ± 0.51 µM.

As to `COc1cc([C@@H]2c3cc4c(cc3[C@@H](O[C@@H]3O[C@@H]5CO[C@@H](C)O[C@H]5[C@H](O)[C@H]3O)[C@H]3COC(=O)[C@H]23)OCO4)cc(OC)c1O` [Etoposide, etoposide, reference compound], the IC50 in data set [1] (Homo sapiens) was determined as 0.85 ± 0.08 µM; in data set [2] (Homo sapiens) it was 0.99 ± 0.09 µM.

As for `CC[C@H](C)[C@H](O)C(=O)N[C@@H](CC(C)C)C(=O)N(C)[C@@H](CCC(N)=O)C(=O)N[C@H](C(=O)NCC(=O)N(C)[C@H](Cc1ccccc1)C(=O)N1Cc2ccccc2C[C@H]1C(=O)OC)[C@@H](C)CC` [Compound C5, HO-Hmp-Leu-N-Me-Gln-Ile-Gly-N-Me-D-Phe-NH-MTC] ({Pentanoyl(2S-OH,3S-Me)}-L[NMeQ]IG[dNMeF][Tic]-OMe), the IC50 came out at 2.45 ± 0.41 µM in data set [1] and 5.24 ± 1.12 µM in data set [2].

Consider `CC[C@H](C)[C@H](O)C(=O)N[C@@H](CC(C)C)C(=O)N(C)[C@H](CCC(N)=O)C(=O)N[C@H](C(=O)NCC(=O)N[C@H](Cc1ccccc1)C(=O)NCc1ccccc1)[C@@H](C)CC` [Compound M2, HO-Hmp-Leu-N-Me-D-Gln-Ile-Gly-D-Phe-NH-Bn] ({Pentanoyl(2S-OH,3S-Me)}-L[dNMeQ]IG[dF]-NHBn), for which the IC50 in data set [1] and in data set [2] was greater than 50 µM in each case.

Take `CC[C@H](C)[C@@H](C(=O)NCC(=O)N(C)[C@H](Cc1ccccc1)C(=O)N1CCC[C@H]1C(=O)OC)N(C)C` [Compound S2, N,N-Me2-Ile-Gly-N-Me-D-Phe-Pro-OMe]: the IC50 in data set [1] and in data set [2] was greater than 50 µM each time.

Take `CC[C@H](C)[C@H](NC(=O)[C@@H](CCC(N)=O)N(C)C(=O)[C@H](CC(C)C)NC(=O)CO)C(=O)NCC(=O)N(C)[C@H](Cc1ccccc1)C(=O)NCc1ccccc1` [Compound N2, 2-Hydroxyacetyl-Leu-N-Me-D-Gln-Ile-Gly-N-Me-D-Phe-NH-Bn] (Glycolyl-L[dNMeQ]IG[dNMeF]-NHBn): the IC50 in data set [1] and in data set [2] was greater than 50 µM throughout.

Take `CC[C@H](C)[C@H](O)C(=O)N[C@@H](CC(C)C)C(=O)N(C)[C@@H](CCC(N)=O)C(=O)N[C@H](C(=O)NCC(=O)N(C)[C@H](Cc1ccccc1)C(=O)N1CCc2ccccc2C1)[C@@H](C)CC` [Compound C7, HO-Hmp-Leu-N-Me-Gln-Ile-Gly-N-Me-D-Phe-NH-TIQ] ({Pentanoyl(2S-OH,3S-Me)}-L[NMeQ]IG[dNMeF]-{Tetrahydroisoquinolin(2-yl)}): the half-inhibitory concentration (IC50) in data set [1] was found to be 3.8 ± 0.46 µM; in data set [2], 3.67 ± 0.66 µM.

For `CC[C@H](C)[C@H](NC(=O)[C@@H](CCC(N)=O)N(C)C)C(=O)NCC(=O)N(C)[C@H](Cc1ccccc1)C(=O)N1CCC[C@H]1C(=O)OC` [Compound S1, N,N-Me2-D-Gln-Ile-Gly-N-Me-D-Phe-Pro-OMe] (X1-IG[dNMeF]P-OMe), the IC50 in data set [1] and in data set [2] was greater than 50 µM throughout.

In the case of `CC[C@H](C)[C@H](O)C(=O)N[C@@H](CC(C)C)C(=O)N(C)[C@H](CCC(N)=O)C(=O)N[C@H](C(=O)NCC(=O)OCc1ccccc1)[C@@H](C)CC` [Compound S4, HO-Hmp-Leu-N-Me-D-Gln-Ile-Gly-OBn] ({Pentanoyl(2S-OH,3S-Me)}-L[dNMeQ]IG-OBn), the IC50 in data set [1] and in data set [2] was greater than 50 µM each time.

For the compound `CC[C@H](C)[C@H](O)C(=O)N[C@@H](CC(C)C)C(=O)N(C)[C@H](CCC(N)=O)C(=O)N[C@H](C(=O)NCC(=O)N(C)[C@H](Cc1ccccc1)C(=O)N1CCC[C@H]1C(=O)OC)[C@@H](C)CC` [Compound T2, tasiamide] ({Pentanoyl(2S-OH,3S-Me)}-L[dNMeQ]IG[dNMeF]P-OMe), the values for the IC50 in data set [1] and in data set [2] were 0.58 ± 0.07 µM and greater than 50 µM, respectively. Also, in data set [3], the “Cytotoxicity IC50, LoVo” value was 3.47 µg/mL. Moreover, the “Cytotoxicity IC50, KB” value in data set [4] is 0.48 µg/mL.

On to `CC[C@H](C)[C@H](O)C(=O)N[C@@H](CC(C)C)C(=O)N[C@H](CCC(N)=O)C(=O)N[C@H](C(=O)NCC(=O)N[C@H](Cc1ccccc1)C(=O)NCc1ccccc1)[C@@H](C)CC` [Compound M3, HO-Hmp-Leu-D-Gln-Ile-Gly-D-Phe-NH-Bn] ({Pentanoyl(2S-OH,3S-Me)}-L[dQ]IG[dF]-NHBn), for which the IC50 in data set [1] and in data set [2] was greater than 50 µM each time.

Values taken from article PMC4012464, “Design, Synthesis and Biological Evaluation of Tasiamide Analogues as Tumor Inhibitors” (Marine Drugs, 2014).
